Measured values as given in article PMC5053523, “In Vitro Antibacterial Activity of Rhodanine Derivatives against Pathogenic Clinical Isolates” (PLoS ONE, 2016).
Values after ≈ are worked out from the molar mass of the structure shown. Like-named read-outs stand apart in the source and are kept apart here.

Legend:
[1] = system: K. pneumoniae; experiment: Broth microdilution MIC, K. pneumoniae; type: cell-based
[2] = system: Escherichia coli O157:H7; experiment: MIC with/without PMBN, Escherichia coli O157:H7; type: cell-based
Procedure, shortened: (§1)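 Gram-negative MICs were determined for rhodanines alongside control antibiotics, each combined with sub-inhibitory colistin or PMBN. Further testing used the efflux-deficient E. coli SM1411ΔacrAB, missing the AcrAB multidrug pump.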

[3] = system: P. aeruginosa; experiment: Broth microdilution MIC, P. aeruginosa; type: cell-based; conditions: Pseudomonas aeruginosa
[4] = system: Escherichia coli Δ acrAB; experiment: MIC against E. coli 1411 and AcrAB efflux pump deficient E. coli SM1411Δ acrAB; type: cell-based
Procedure, shortened: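 Rhodanines and control antibiotics are tested for MIC against Gram-negative bacteria while a sub-inhibitory level of colistin or PMBN is present. A strain of E. coli lacking the AcrAB efflux pump (SM1411ΔacrAB) serves as an additional test organism.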

[5] = system: Escherichia coli O157:H7; experiment: MIC with/without sub-MIC colistin, Escherichia coli O157:H7; type: cell-based
Procedure, shortened: as §1

[6] = system: Pseudomonas aeruginosa; experiment: MIC with/without PMBN, Pseudomonas aeruginosa; type: cell-based
Procedure, shortened: as §1

[7] = system: B. cereus; experiment: Broth microdilution MIC/MBC, B. cereus; type: cell-based; conditions: Bacillus cereus; for MBC: read-out: MBC; for MIC: read-out: MIC
Text: The broth microdilution technique was used, followed by subculturing on agar plates that were rhodanine—free.

[8] = system: Klebsiella pneumoniae; experiment: MIC with/without sub-MIC colistin, Klebsiella pneumoniae; type: cell-based
Procedure, shortened: as §1

[9] = system: Acinetobacter baumannii; experiment: MIC with/without PMBN, Acinetobacter baumannii; type: cell-based
Procedure, shortened: as §1

[10] = system: Salmonella Typhimurium; experiment: MIC with/without sub-MIC colistin, Salmonella Typhimurium; type: cell-based
Procedure, shortened: as §1

[11] = system: MRSA USA300; experiment: MIC against MRSA USA300 with and without 4% human serum albumin; type: cell-based, Staphylococcus aureus; conditions: Staphylococcus aureus, read-out: MIC against MRSA USA300
Procedure, shortened: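 Broth microdilution MIC per CLSI against MRSA USA300, run in tryptic soy broth alone and with 4% human serum albumin. MIC is the lowest concentration inhibiting growth.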

[12] = system: Acinetobacter baumannii; experiment: Broth microdilution MIC, Acinetobacter baumannii; type: cell-based
[13] = system: vancomycin resistant enterococci (VRE) E. faecalis; experiment: Broth microdilution MIC/MBC, VRE E. faecalis; type: cell-based; conditions: for MIC: read-out: MIC
[14] = system: Salmonella Typhimurium; experiment: MIC with/without PMBN, Salmonella Typhimurium; type: cell-based
Procedure, shortened: as §1

[15] = system: Bacillus Strains; experiment: Broth microdilution MIC50/MIC90 and MIC range, Bacillus strains panel; type: cell-based, Bacillus spp.; conditions: 10 Bacillus strains
Text: The broth microdilution technique was used, followed by subculturing on agar plates that were rhodanine—free. […] The MICs reported represent the lowest concentration of each compound necessary to inhibit bacterial growth and the MBCs represent the lowest concentration required to reduce the initial bacterial inoculum by ≥ 99.9%.

[16] = system: Pseudomonas aeruginosa; experiment: MIC with/without sub-MIC colistin, Pseudomonas aeruginosa; type: cell-based
Procedure, shortened: as §1

[17] = system: vancomycin resistant enterococci (VRE) E. faecium; experiment: Broth microdilution MIC/MBC, VRE E. faecium; type: cell-based; conditions: for MIC: read-out: MIC
[18] = NRS201, B. cereus NRS 201 NR-2488
[19] = Salmonella enterica, ATCC 700720 / TYPHIMURIUM
[20] = E. faecalis NR31972 Strain SF 28073
[21] = E. faecium HM 968 Strain ERV102
[22] = E. faecium NR31914 Strain E0120
[23] = E. faecium Patient #1–1 NR-31903

## O=C(O)[C@H](Cc1ccccc1)N1C(=O)/C(=C/c2cccc(Cc3ccc(Cl)c(Cl)c3)c2)SC1=S [Rh 3]
[1]; K. pneumoniae NR-15417
  MIC: >128 µM
[1]; Klebsiella pneumoniae
  MIC: > 128 µM
[2]; Escherichia coli O157:H7 ATCC 35150, PMBN (+) 4 μg/mL, read-out: MIC
  MIC: 8 µM (≈ 4.23 µg/mL)
[2]; Escherichia coli O157:H7 ATCC 700728, PMBN (+) 4 μg/mL, read-out: MIC
  MIC: >64 µM
[2]; Escherichia coli, ATCC35150
  MIC: > 256 µM
[2]; Escherichia coli, ATCC700728
  MIC: > 128 µM
[3]; ATCC9721
  MIC: > 128 µM
[3]; ATCC15442
  MIC: > 128 µM
[4]; E.coli 1411
  MIC: > 64 µM
[4]; E.coli 1411 SM (Δ acrAB, AcrAB efflux pump deficient)
  MIC: > 64 µM
[5]; Escherichia coli O157:H7 ATCC 35150, colistin (+) […], read-out: MIC
  MIC: >64 µM
[5]; Escherichia coli O157:H7 ATCC 700728, colistin (+) […], read-out: MIC
  MIC: >64 µM
[5]; Escherichia coli, ATCC35150
  MIC: > 128 µM
[5]; Escherichia coli, ATCC700728
  MIC: > 128 µM
[6]; Pseudomonas aeruginosa ATCC 9721, PMBN (+) 4 μg/mL, read-out: MIC
  MIC: >64 µM
[6]; Pseudomonas aeruginosa, ATCC9721
  MIC: > 128 µM
[7]; B. cereus BAG1O-2 NR-28582
  MBC: 4 µM (≈ 2.11 µg/mL)
  MIC: 4 µM (≈ 2.11 µg/mL)
[7]; B. cereus BAG1X1-1 NR-28575
  MBC: 2 µM (≈ 1.06 µg/mL)
  MIC: 2 µM (≈ 1.06 µg/mL)
[7]; B. cereus BAG1X2-1 NR-28578
  MBC: 4 µM (≈ 2.11 µg/mL)
  MIC: 4 µM (≈ 2.11 µg/mL)
[7]; B. cereus G9241 NR-9564
  MBC: 4 µM (≈ 2.11 µg/mL)
  MIC: 4 µM (≈ 2.11 µg/mL)
[7]; B. cereus VD014 NR-22141
  MBC: 4 µM (≈ 2.11 µg/mL)
  MIC: 4 µM (≈ 2.11 µg/mL)
[7]; B. cereus VD115 NR-22148
  MBC: 4 µM (≈ 2.11 µg/mL)
  MIC: 4 µM (≈ 2.11 µg/mL)
[7]; B. cereus VD148 NR-22150
  MBC: 8 µM (≈ 4.23 µg/mL)
  MIC: 8 µM (≈ 4.23 µg/mL)
[7]; [18]
  MBC: 4 µM (≈ 2.11 µg/mL)
  MIC: 4 µM (≈ 2.11 µg/mL)
[8]; Klebsiella pneumoniae ATCC BAA 2146, colistin (+) […]
  MIC: >64 µM
[8]; Klebsiella pneumoniae, BAA2146
  MIC: > 128 µM
[9]; Acinetobacter baumannii ATCC BAA747, PMBN (+) 4 μg/mL, read-out: MIC
  MIC: >64 µM
[9]; Acinetobacter baumannii ATCC BAA19606, PMBN (+) 4 μg/mL, read-out: MIC
  MIC: >64 µM
[9]; Acinetobacter baumannii, ATCCBAA747
  MIC: > 128 µM
[9]; Acinetobacter baumannii, ATCCBAA19606
  MIC: > 128 µM
[10]; Salmonella Typhimurium ATCC 700720, colistin (+) […], read-out: MIC
  MIC: >64 µM
[10]; [19]
  MIC: > 128 µM
[11]; 24 h, Media TSB + 4% HSA
  MIC: > 64 µM
[11]; Media TSB
  MIC: 8 µM (≈ 4.23 µg/mL)
[12]; ATCC13345
  MIC: > 128 µM
[12]; ATCC17786
  MIC: > 128 µM
[13]; E. faecalis ERV103 HM-934
  MBC: 8 µM (≈ 4.23 µg/mL)
  MIC: 4 µM (≈ 2.11 µg/mL)
[13]; [20]
  MBC: 64 µM (≈ 33.8 µg/mL)
  MIC: 4 µM (≈ 2.11 µg/mL)
[13]; E. faecalis R712 HM-335
  MBC: 4 µM (≈ 2.11 µg/mL)
  MIC: 4 µM (≈ 2.11 µg/mL)
[13]; E. faecalis S613 HM-334
  MBC: 8 µM (≈ 4.23 µg/mL)
  MIC: 4 µM (≈ 2.11 µg/mL)
[13]; E. faecalis TX0104 HM-201
  MBC: 8 µM (≈ 4.23 µg/mL)
  MIC: 4 µM (≈ 2.11 µg/mL)
[14]; Salmonella Typhimurium ATCC 700720, PMBN (+) 4 μg/mL, read-out: MIC
  MIC: >128 µM
[14]; [19]
  MIC: > 128 µM
[15]
  MIC50: 4 µM (≈ 2.11 µg/mL)
  MIC90: 4 µM (≈ 2.11 µg/mL)
[16]; Pseudomonas aeruginosa ATCC 921, colistin (+) […], read-out: MIC
  MIC: >64 µM
[16]; Pseudomonas aeruginosa, ATCC921
  MIC: > 128 µM
[17]; E. faecium E417 HM-965
  MBC: 64 µM (≈ 33.8 µg/mL)
  MIC: 4 µM (≈ 2.11 µg/mL)
[17]; E. faecium E1071 NR-28978
  MBC: > 64 µM
  MIC: 8 µM (≈ 4.23 µg/mL)
[17]; [21]
  MBC: 64 µM (≈ 33.8 µg/mL)
  MIC: 4 µM (≈ 2.11 µg/mL)
[17]; [22]
  MBC: 64 µM (≈ 33.8 µg/mL)
  MIC: 8 µM (≈ 4.23 µg/mL)
[17]; [23]
  MBC: 64 µM (≈ 33.8 µg/mL)
  MIC: 4 µM (≈ 2.11 µg/mL)
